From ChEMBL document CHEMBL4152208, “Synthesis and structure-activity relationships of quinolinone and quinoline-based P2X7 receptor antagonists and their anti-sphere formation activities in glioblastoma cells” (Eur J Med Chem, 2018) come the findings set out here.

≈ marks a conversion by molar mass, not a printed value. Calls of active or inactive are those of the source. The rule behind the calls is not given here.

In one series the target is T1, P2X purinoceptor 7 (Homo sapiens, UniProt Q99572).
T1 sequence (Q99572 whole entry): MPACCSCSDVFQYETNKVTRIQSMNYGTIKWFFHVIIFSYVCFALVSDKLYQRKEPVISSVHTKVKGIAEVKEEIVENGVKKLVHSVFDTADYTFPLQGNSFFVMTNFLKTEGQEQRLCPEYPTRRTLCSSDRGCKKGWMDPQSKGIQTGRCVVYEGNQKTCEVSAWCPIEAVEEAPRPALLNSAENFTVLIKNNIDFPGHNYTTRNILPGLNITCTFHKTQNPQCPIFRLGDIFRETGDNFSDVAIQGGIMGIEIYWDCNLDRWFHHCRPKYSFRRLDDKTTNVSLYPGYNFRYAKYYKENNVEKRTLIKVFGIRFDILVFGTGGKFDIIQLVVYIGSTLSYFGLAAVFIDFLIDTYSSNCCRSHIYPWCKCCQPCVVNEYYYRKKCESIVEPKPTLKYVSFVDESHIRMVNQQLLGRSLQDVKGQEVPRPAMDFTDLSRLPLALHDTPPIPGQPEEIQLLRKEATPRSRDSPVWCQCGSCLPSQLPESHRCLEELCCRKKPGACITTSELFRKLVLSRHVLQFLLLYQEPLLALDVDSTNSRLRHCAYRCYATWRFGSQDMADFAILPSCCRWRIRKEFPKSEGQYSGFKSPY
The series is described as follows: Antagonist activity at P2X7 in LPS/IFN gamma differentiated human THP-1 cells assessed as inhibition of BzATP-induced IL-1beta release preincubated for 30 mins followed by BzATP stimulation for 30 mins by ELISA. The series is classed as cell-based.

Series [1] concerns the target T2, P2X purinoceptor 1 (Homo sapiens) (UniProt P51575).
T2 sequence (whole entry): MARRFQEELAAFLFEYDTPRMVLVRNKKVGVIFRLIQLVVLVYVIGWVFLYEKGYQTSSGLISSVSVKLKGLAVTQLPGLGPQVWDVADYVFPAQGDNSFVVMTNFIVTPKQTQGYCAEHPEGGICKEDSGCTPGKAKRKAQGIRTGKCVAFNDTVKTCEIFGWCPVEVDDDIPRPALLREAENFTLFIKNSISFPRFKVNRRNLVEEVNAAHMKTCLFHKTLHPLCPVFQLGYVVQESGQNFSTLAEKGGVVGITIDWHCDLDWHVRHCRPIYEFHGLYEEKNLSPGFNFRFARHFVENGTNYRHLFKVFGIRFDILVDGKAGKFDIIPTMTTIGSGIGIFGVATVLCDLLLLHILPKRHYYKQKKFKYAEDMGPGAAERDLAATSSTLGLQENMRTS
The series is described as follows: Antagonist activity at human P2X1 receptor expressed in 1321N1 cells assessed as inhibition of ATP-induced calcium flux at 1 uM measured for 30 secs at 0.4 secs intervals by Flou-4-AM dye based fluorescence assay relative to control. The series is classed as cell-based. For orientation: Calcium assays in cells follow changes in intracellular calcium, usually with a dye or a luminescent sensor.

Series [2] addresses T3, P2X purinoceptor 2 (Homo sapiens) (UniProt Q9UBL9).
T3 sequence (whole entry): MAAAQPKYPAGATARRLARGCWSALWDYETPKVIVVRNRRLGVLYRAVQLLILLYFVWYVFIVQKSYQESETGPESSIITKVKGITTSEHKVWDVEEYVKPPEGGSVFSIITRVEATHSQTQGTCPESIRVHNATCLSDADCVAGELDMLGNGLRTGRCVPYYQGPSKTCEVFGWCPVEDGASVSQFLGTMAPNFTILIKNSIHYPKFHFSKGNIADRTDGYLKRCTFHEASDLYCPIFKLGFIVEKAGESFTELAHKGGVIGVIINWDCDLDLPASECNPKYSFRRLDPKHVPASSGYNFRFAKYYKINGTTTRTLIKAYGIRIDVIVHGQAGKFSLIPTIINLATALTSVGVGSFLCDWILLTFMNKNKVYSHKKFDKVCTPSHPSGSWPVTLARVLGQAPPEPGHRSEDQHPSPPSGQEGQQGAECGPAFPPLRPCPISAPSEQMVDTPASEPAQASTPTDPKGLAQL
The series is described as follows: Antagonist activity at human P2X2 receptor expressed in 1321N1 cells assessed as inhibition of ATP-induced calcium flux at 1 uM measured for 30 secs at 0.4 secs intervals by Flou-4-AM dye based fluorescence assay relative to control. The series is classed as cell-based.

The target of a further series is T4, P2X purinoceptor 3 (Homo sapiens, UniProt P56373).
T4 sequence (P56373 whole entry): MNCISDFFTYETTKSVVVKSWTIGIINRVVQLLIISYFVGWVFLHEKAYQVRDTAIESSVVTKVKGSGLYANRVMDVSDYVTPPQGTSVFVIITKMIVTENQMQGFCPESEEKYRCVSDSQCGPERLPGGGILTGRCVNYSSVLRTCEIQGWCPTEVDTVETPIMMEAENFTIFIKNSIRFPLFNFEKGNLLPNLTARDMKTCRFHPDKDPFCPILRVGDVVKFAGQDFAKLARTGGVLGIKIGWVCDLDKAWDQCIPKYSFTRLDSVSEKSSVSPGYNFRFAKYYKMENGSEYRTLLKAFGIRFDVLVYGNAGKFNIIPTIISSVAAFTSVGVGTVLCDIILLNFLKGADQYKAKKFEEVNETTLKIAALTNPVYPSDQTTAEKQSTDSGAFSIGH
Kind of series: Antagonist activity at human P2X3 receptor expressed in 1321N1 cells assessed as inhibition of ATP-induced calcium flux measured for 30 secs at 0.4 secs intervals by Flou-4-AM dye based fluorescence assay. The series is classed as cell-based.

For series [3], the species on record is Homo sapiens. The series is described as follows: Antiproliferative activity against human TS15-88 cells at 50 uM after 72 hrs by MTS assay. The series is classed as functional, cell-based. In general terms: Formazan colour is commonly taken as a measure of viable cells.
The nature of series [4]: Antiproliferative activity against human TS15-88 cells after 24 to 72 hrs by MTS assay. The series is classed as functional, cell-based.
The species named for series [5] is Homo sapiens. Kind of series: Inhibition of neurosphere formation in human TS15-88 cells assessed as decrease in surface area of sphere at 50 uM after 5 days by microscopic analysis. In kind it is functional, cell-based.
Series [6] is described as follows: Reduction of […] mRNA expression in human TS15-88 cells after 72 hrs by qRT-PCR analysis relative to control. The series is classed as functional. The arrangement: scale not given: the % may be the effect or the level left. For orientation: Real-time PCR tracks product formation cycle by cycle.
The nature of series [7]: Increase in MYC mRNA expression in human TS15-88 cells after 72 hrs by qRT-PCR analysis relative to control. In kind it is functional.
Series [8] can be described thus: Increase in CD133 mRNA expression in human TS15-88 cells after 72 hrs by qRT-PCR analysis relative to control. The series is classed as functional.
A short description of series [9]: Cytotoxicity against HEK293 cells expressing human P2X7 receptor assessed as cell survival at 10 uM by MTT assay relative to control. The series is classed as cell-based. Particulars: read-out: Survival.
Series [10] can be described thus: Drug level in zebrafish blood at 10 mg/kg, po administered via gavage measured 0.5 hrs post compound administration by LC-MS/MS analysis. To be noted: read-out: Drug uptake. The series is classed as ADME, organism-based, Danio rerio.
Series [11] is described as follows: Ratio of drug level in zebrafish brain to blood at 10 mg/kg, po administered via gavage measured 0.5 hrs post compound administration by LC-MS/MS analysis. The series is classed as ADME, organism-based, Danio rerio.
The nature of series [12]: Equilibrium solubility of the compound in DMSO after 16 hrs. The series is classed as physicochemical.
Series [13] can be described thus: Metabolic stability in human liver microsomes assessed as parent compound remaining at 1 uM up to 30 mins in presence of NADPH by LC-MS/MS analysis. Particulars: read-out: Stability. The series is classed as ADME, microsome.
Series [14] is described as follows: Metabolic stability in mouse liver microsomes assessed as parent compound remaining at 1 uM up to 30 mins in presence of NADPH by LC-MS/MS analysis. Particulars: read-out: Stability. In kind it is ADME, microsome.

For the compound `O=C(CC12CC3CC(CC(C3)C1)C2)Nc1cccc2nc(Cl)ccc12`, the IC50 on P2X purinoceptor 7 is 7 nM; on P2X purinoceptor 3 it was “Not Active”; in [4], 40 µM. Further, the inhibition in [1] came to 13%; in series [2] it was 7%. The result in the series listed under Homo sapiens [3] was Active. The inhibition entry in the series listed under Homo sapiens [5] was “Active”. The Activity amounted to 41% in series [6], 41% in series [7] and 30% in [8]. In series [9], the viability at 10 µM came to 98%. The concentration at 0.5 h in [10] is 235 ng/mL. In series [11], the Kp at 0.5 h was 2.03. Moreover, the solubility at 16 h in series [12] was determined as 15.6 µM (≈ 5.54 µg/mL). For the same compound, the remaining at 0.5 h, 1 µM is 0.04% in series [13] and 0.1% in [14].

Broadly, the IC50 is the point on the concentration scale where inhibition reaches its midpoint. Usually inhibition stands for the share of the control response that was lost under treatment. As usually defined, the Kp is the ratio of the level in a tissue or fluid to that in plasma or blood. The solubility is how much of the substance goes into solution per volume.
